Reference: patent US11214803B2, “Modulators of YAP1 expression” (Ionis Pharmaceuticals, Inc., priority 2019, dated 2022)
Strand notation (5' to 3'): a small letter for the sugar, then the base; units joined by * are phosphorothioate-linked, units joined directly phosphodiester-linked; [ ] holds rarer units or linkages, { } end groups; capitals alone tell only the bases. k = constrained ethyl (cEt); [5mC] = 5-methylcytosine; d = 2'-deoxy (DNA)

Tested on: Yap1 mRNA
Assay: Antisense inhibition of human Yap1 in A-431 cells by cEt gapmers, single dose (Example 3, RTS36584)
Assay type: cell-based
Settings: Table 8; A-431 cells, 5,000 cells per well, free uptake, 2,000 nM, approximately 48 hours; RTS36584; normalized to RIBOGREEN; Yap1 mRNA relative to untreated control cells
Summary of the method: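 Free uptake, 2,000 nM, ~48 h, A-431 cells. Gapmers: 16-mer 3-10-3 cEt wings, PS backbone, 5-MeC. Readout qRT-PCR, RiboGreen-normalized, % UTC.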

| Substance | YAP1 (% UTC) |
| --- | --- |
| 958367 (antisense k[5mC]*kT*kA*dG*d[5mC]*dT*dT*dG*dG*dT*dG*dG*d[5mC]*kA*kG*k[5mC]) [Compound 958367] | 105 |
| 958413 (antisense k[5mC]*kT*kA*dG*dT*dA*dA*dT*d[5mC]*dT*dT*dA*d[5mC]*kT*kG*kG) [Compound 958413] | 80 |
| 958362 (antisense kA*kG*k[5mC]*dT*d[5mC]*dG*dA*dA*d[5mC]*dA*dT*dG*d[5mC]*kT*kG*kT) [Compound 958362] | 58 |
| 958381 (antisense kT*k[5mC]*k[5mC]*dT*d[5mC]*dT*dG*d[5mC]*dG*d[5mC]*dG*d[5mC]*d[5mC]*k[5mC]*kG*k[5mC]) [Compound 958381] | 146 |
| 958404 (antisense kG*k[5mC]*kA*d[5mC]*dA*d[5mC]*dA*dA*d[5mC]*dT*d[5mC]*dA*dG*kA*k[5mC]*kA) [Compound 958404] | 52 |

Same assay, conditions: Table 9; A-431 cells, 5,000 cells per well, free uptake, 2,000 nM, approximately 48 hours; RTS36584; normalized to RIBOGREEN; Yap1 mRNA relative to untreated control cells

| Substance | YAP1 (% UTC) |
| --- | --- |
| 958546 (k[5mC]*kA*kT*dA*d[5mC]*dT*d[5mC]*dT*dA*dG*dT*dT*dA*k[5mC]*kA*kT; antisense) [Compound 958546] | 6 |
| 958606 (antisense kT*k[5mC]*k[5mC]*dA*d[5mC]*d[5mC]*dT*dG*dA*dG*d[5mC]*dA*d[5mC]*kT*k[5mC]*kA) [Compound 958606] | 31 |
| 958581 (k[5mC]*kT*kG*d[5mC]*dT*dG*dA*dT*dA*dT*dA*dT*dA*kA*kG*kA; antisense) [Compound 958581] | 26 |

Same assay, conditions: Table 10; A-431 cells, 5,000 cells per well, free uptake, 2,000 nM oligonucleotide, approx. 48 hours; primer probe set RTS36584; Yap1 mRNA normalized to RIBOGREEN, percent of untreated control

| Substance | YAP1 (% UTC) |
| --- | --- |
| 958572 (kA*kT*kT*dA*dT*dA*dG*dG*d[5mC]*dA*d[5mC]*dT*d[5mC]*k[5mC]*kT*kT; antisense) [Compound 958572] | 5 |
| 958787 (antisense kT*kG*kG*dG*d[5mC]*dA*dA*dA*dG*dT*dT*d[5mC]*d[5mC]*kT*k[5mC]*kT) [Compound 958787] | 67 |
| 958532 (kG*kA*kA*dG*dT*dA*dG*dG*dA*dG*d[5mC]*dA*dA*kG*kT*k[5mC]; antisense) [Compound 958532] | 2 |
| 958637 (antisense k[5mC]*k[5mC]*kG*d[5mC]*dA*dG*dA*dG*dA*dG*dA*dA*dA*k[5mC]*kT*k[5mC]) [Compound 958637] | 101 |
| 958587 (kG*kG*kT*dG*dA*d[5mC]*dT*dG*dA*dA*dA*d[5mC]*dT*k[5mC]*kT*kA; antisense) [Compound 958587] | 2 |
| 958642 (antisense kG*kA*k[5mC]*dA*dT*d[5mC]*dA*dA*dT*dT*dT*d[5mC]*dA*kG*kT*k[5mC]) [Compound 958642] | 91 |

Same assay, conditions: Table 11; A-431 cells, 5,000 cells per well, free uptake, 2,000 nM oligonucleotide, approx. 48 hours; primer probe set RTS36584; Yap1 mRNA normalized to RIBOGREEN, percent of untreated control

| Substance | YAP1 (% UTC) |
| --- | --- |
| 958778 (antisense kG*k[5mC]*kT*dA*d[5mC]*d[5mC]*dT*dG*dG*dA*dG*d[5mC]*dG*kA*kA*kG) [Compound 958778] | 75 |
| 958473 (antisense kG*kT*k[5mC]*dT*d[5mC]*d[5mC]*dT*dT*dA*dG*dA*dT*d[5mC]*k[5mC]*kT*kT) [Compound 958473] | 5 |
| 958618 (antisense kA*kG*k[5mC]*d[5mC]*dA*dA*dG*dA*dG*dG*dT*dG*dG*kT*k[5mC]*kT) [Compound 958618] | 36 |
| 958568 (kT*kA*kT*dG*dA*dG*dT*dG*dA*dT*d[5mC]*dA*dA*k[5mC]*k[5mC]*kT; antisense) [Compound 958568] | 5 |

Same assay, conditions: Table 12; A-431 cells, 5,000 cells per well, free uptake, 2,000 nM modified oligonucleotide, approx. 48 hours; RTS36584; normalized to RIBOGREEN; Yap1 mRNA relative to untreated control cells

| Substance | YAP1 (% UTC) |
| --- | --- |
| 958714 (antisense kG*kA*kG*d[5mC]*dA*d[5mC]*dT*dG*d[5mC]*dG*d[5mC]*d[5mC]*d[5mC]*kT*kG*kG) [Compound 958714] | 82 |
| 958559 (kA*kA*kT*dT*d[5mC]*dA*d[5mC]*dA*dA*d[5mC]*d[5mC]*dA*dA*k[5mC]*kT*kA; antisense) [Compound 958559] | 17 |
| 958744 (antisense kG*k[5mC]*kA*dT*dA*d[5mC]*dT*dG*dG*dT*dG*d[5mC]*d[5mC]*k[5mC]*k[5mC]*kA) [Compound 958744] | 45 |
| 958549 (kT*kG*kT*dA*dG*dA*d[5mC]*dA*d[5mC]*dA*dT*dA*d[5mC]*kT*k[5mC]*kT; antisense) [Compound 958549] | 8 |
| 958604 (kA*k[5mC]*kG*d[5mC]*dT*dA*dG*dA*dA*dA*dA*dG*dT*kG*kT*kT; antisense) [Compound 958604] | 94 |
| 958564 (kT*k[5mC]*k[5mC]*dA*dA*dA*dT*dT*dG*dA*dA*dG*dG*kG*k[5mC]*k[5mC]; antisense) [Compound 958564] | 62 |

Same assay, conditions: Table 13; A-431 cells, 5,000 cells per well, free uptake, 2,000 nM modified oligonucleotide, approx. 48 hours; RTS36584; normalized to RIBOGREEN; Yap1 mRNA relative to untreated control cells

| Substance | YAP1 (% UTC) |
| --- | --- |
| 958525 (kA*kT*kG*dA*dA*dG*dG*dT*dA*dA*dA*d[5mC]*d[5mC]*kA*k[5mC]*kT; antisense) [Compound 958525] | 3 |
| 958730 (antisense k[5mC]*kT*k[5mC]*dT*dG*dT*d[5mC]*dA*dG*dT*dT*dA*dT*k[5mC]*k[5mC]*kT) [Compound 958730] | 4 |
| 958735 (antisense kA*kG*k[5mC]*dA*dA*dT*d[5mC]*dT*dT*dG*dT*dG*dG*kA*kT*k[5mC]) [Compound 958735] | 7 |
| 958605 (antisense k[5mC]*kT*k[5mC]*dA*dG*dA*dT*dG*dT*dA*d[5mC]*d[5mC]*dA*kA*k[5mC]*kG) [Compound 958605] | 7 |
| 958495 (kG*kG*kT*d[5mC]*dA*dT*dT*dA*dT*dG*dT*dG*dA*k[5mC]*kT*kA; antisense) [Compound 958495] | 56 |
| 958620 (antisense kA*kA*kG*d[5mC]*d[5mC]*dT*dT*dG*dG*dG*dT*d[5mC]*dT*kA*kG*k[5mC]) [Compound 958620] | 57 |
| 958625 (antisense kT*kG*k[5mC]*dT*dG*dG*dG*dA*dT*dT*dG*dA*dT*kA*kT*kT) [Compound 958625] | 6 |
| 958575 (kG*kG*k[5mC]*dT*dA*d[5mC]*dT*dG*dG*d[5mC]*dA*dA*dA*kT*kT*kA; antisense) [Compound 958575] | 9 |
| 958545 (kA*k[5mC]*kT*d[5mC]*dT*dA*dG*dT*dT*dA*d[5mC]*dA*dT*k[5mC]*kA*kT; antisense) [Compound 958545] | 3 |

Same assay, conditions: Table 26; Yap1 mRNA by 3-10-3 cEt gapmers targeting SEQ ID NO.: 1, and 2; percent of untreated control

| Substance | YAP1 (% UTC) |
| --- | --- |
| 1076012 (kA*kA*kT*dA*dT*dA*dA*dA*d[5mC]*dA*dA*dT*dA*kG*k[5mC]*kG; antisense) [compound 1076012] | 34 |
| 1076108 (kA*kA*kA*d[5mC]*dA*dA*dA*dA*d[5mC]*d[5mC]*dG*dG*d[5mC]*kT*kT*kT; antisense) [compound 1076108] | 116 |
| 1075820 (kT*k[5mC]*kT*dG*dA*dA*d[5mC]*dG*dG*dG*d[5mC]*dT*dG*kT*kT*kG; antisense) [compound 1075820] | 27 |
| 1074892 (k[5mC]*kT*kG*dA*dA*dG*dT*dT*dT*dA*dG*d[5mC]*d[5mC]*kT*kG*kA; antisense) [compound 1074892] | 42 |

Same assay, conditions: Table 27; Yap1 mRNA by 3-10-3 cEt gapmers targeting SEQ ID NO.: 1, and 2; percent of untreated control

| Substance | YAP1 (% UTC) |
| --- | --- |
| 1075245 (k[5mC]*k[5mC]*kT*dA*dA*dT*dA*dT*dG*d[5mC]*dT*dA*dT*kT*kG*kT; antisense) [compound 1075245] | 34 |
| 1074189 (antisense kG*kG*k[5mC]*dT*dG*d[5mC]*dG*dA*dA*dG*dG*d[5mC]*dG*kG*k[5mC]*kT) [compound 1074189] | 96 |
| 1076045 (kG*kT*kG*d[5mC]*dA*dA*dT*dA*dA*dA*dT*dA*dG*kT*kT*k[5mC]; antisense) [compound 1076045] | 11 |
| 1075693 (k[5mC]*kA*kT*dT*dA*dA*dA*dA*dG*dT*dT*dG*dG*kG*kT*kT; antisense) [compound 1075693] | 36 |
| 1075725 (kA*kT*k[5mC]*d[5mC]*dT*dA*dT*d[5mC]*dT*dG*dT*d[5mC]*dA*kG*kT*kT; antisense) [compound 1075725] | 18 |

Same assay, conditions: Table 28; Yap1 mRNA as percent of untreated control; 3-10-3 cEt gapmers targeting SEQ ID NO.: 1, and 2

| Substance | YAP1 (% UTC) |
| --- | --- |
| 1075374 (antisense kG*kA*kA*dA*dA*dT*dA*d[5mC]*dT*d[5mC]*d[5mC]*dT*d[5mC]*k[5mC]*kT*kA) [compound 1075374] | 27 |
| 1075854 (k[5mC]*kT*kT*dA*dT*dA*dA*dT*dA*dG*dA*dG*d[5mC]*kT*kA*kA; antisense) [compound 1075854] | 52 |

Same assay, conditions: Table 29; Yap1 mRNA as percent of untreated control; 3-10-3 cEt gapmers targeting SEQ ID NO.: 1, and 2

| Substance | YAP1 (% UTC) |
| --- | --- |
| 1074927 (antisense kT*kA*k[5mC]*dA*dA*d[5mC]*dA*dG*dG*d[5mC]*d[5mC]*dT*dG*k[5mC]*kA*kA) [compound 1074927] | 74 |
| 1075119 (kA*kG*kG*dG*dA*dA*dT*dA*dT*dG*dT*dT*dA*kA*kT*k[5mC]; antisense) [compound 1075119] | 8 |

Same assay, conditions: Table 35; Yap1 mRNA as percent of untreated control; 3-10-3 cEt gapmers targeting SEQ ID NO: 1 and 2; single dose

| Substance | YAP1 (% UTC) |
| --- | --- |
| 1076565 (k[5mC]*kA*kT*dT*dA*dA*dG*dT*d[5mC]*dA*d[5mC]*dA*dG*k[5mC]*kA*kT; antisense) [compound 1076565] | 74 |
